In US9242970B2 (ACTELION PHARMACEUTICALS LTD., priority 2010, dated 2016):

What was measured:
human orexin-1 receptor = human orexin-1 receptor (Homo sapiens (Human), UniProt O43613); test: In vitro assay: intracellular calcium measurements (FLIPR), antagonistic activity; format: cell-based; conditions: CHO cells, 3 nM orexin-A, compound incubation 120 min; marked values are geometric means of n = 2-6; read-out: IC50 OX1
human orexin-2 receptor = human orexin-2 receptor (Homo sapiens (Human), UniProt O43614); test: as above; format: cell-based; conditions: CHO cells, 3 nM orexin-A, compound incubation 120 min; marked values are geometric means of n = 2-6; read-out: IC50 OX2
human orexin-2 receptor, sequence (O43614 whole entry): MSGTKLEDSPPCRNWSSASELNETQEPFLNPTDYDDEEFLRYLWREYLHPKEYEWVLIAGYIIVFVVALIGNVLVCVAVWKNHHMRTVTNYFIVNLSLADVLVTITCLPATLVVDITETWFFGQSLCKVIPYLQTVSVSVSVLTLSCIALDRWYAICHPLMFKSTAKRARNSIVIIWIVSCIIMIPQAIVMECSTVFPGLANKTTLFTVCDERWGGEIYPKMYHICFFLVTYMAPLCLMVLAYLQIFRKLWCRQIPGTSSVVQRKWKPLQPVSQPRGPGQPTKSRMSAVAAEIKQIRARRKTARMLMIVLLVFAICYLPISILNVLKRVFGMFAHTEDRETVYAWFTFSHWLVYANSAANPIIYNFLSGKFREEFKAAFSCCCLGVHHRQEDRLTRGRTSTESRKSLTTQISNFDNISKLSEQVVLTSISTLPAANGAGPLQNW

human orexin-1 receptor, sequence (O43613 whole entry): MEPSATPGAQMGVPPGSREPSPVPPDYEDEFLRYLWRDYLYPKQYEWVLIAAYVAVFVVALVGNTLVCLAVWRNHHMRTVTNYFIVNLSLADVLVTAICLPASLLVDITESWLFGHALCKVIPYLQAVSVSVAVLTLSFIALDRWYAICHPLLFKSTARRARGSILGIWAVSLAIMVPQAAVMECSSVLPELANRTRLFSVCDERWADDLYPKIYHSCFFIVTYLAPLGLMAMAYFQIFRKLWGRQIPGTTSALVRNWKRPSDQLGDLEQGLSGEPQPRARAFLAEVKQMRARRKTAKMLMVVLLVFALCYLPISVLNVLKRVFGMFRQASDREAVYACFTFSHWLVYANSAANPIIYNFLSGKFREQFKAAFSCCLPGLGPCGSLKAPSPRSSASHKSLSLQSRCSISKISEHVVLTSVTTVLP

| Compound | IC50 (human orexin-1 receptor) [nM] | IC50 (human orexin-2 receptor) [nM] |
| --- | --- | --- |
| CCOc1cccc(F)c1C1CC(C)C(=O)N1Cc1cnc2ccccc2c1 (stereo not drawn) [Example 378, 5-(2-ethoxy-6-fluorophenyl)-3-methyl-1-(quinolin-3-ylmethyl)pyrrolidin-2-one] | 1640 | 690 |
| CCOc1cccc(F)c1C1CC(C)C(=O)N1Cc1ccc2ccccc2n1 (stereo not drawn) [Example 379, 5-(2-ethoxy-6-fluorophenyl)-3-methyl-1-(quinolin-2-ylmethyl)pyrrolidin-2-one] | 1000 | 71 |
| CCOc1cccc(F)c1C1CC(C)C(=O)N1Cc1ccnc(-c2ncc(C)s2)c1 (stereo not drawn) [Example 380, 5-(2-ethoxy-6-fluorophenyl)-3-methyl-1-((2-(5-methylthiazol-2-yl)pyridin-4-yl)methyl)pyrrolidin-2-one] | 131 | 2 |
| CCOc1cccc(F)c1C1CC(C)C(=O)N1Cc1ccnc(-n2cccn2)c1 (stereo not drawn) [Example 381, 1-((2-(1H-pyrazol-1-yl)pyridin-4-yl)methyl)-5-(2-ethoxy-6-fluorophenyl)-3-methylpyrrolidin-2-one] | 418 | 9 |
| CCOc1cccc(F)c1C1CC(C)C(=O)N1Cc1ccc2oc3ccccc3c2c1 (stereo not drawn) [Example 382, 1-(dibenzo[b,d]furan-2-ylmethyl)-5-(2-ethoxy-6-fluorophenyl)-3-methylpyrrolidin-2-one] | 88 | 2 |
| CCOc1cccc(F)c1C1CC(C)C(=O)N1Cc1csc(-c2ccc(C)cc2)n1 (stereo not drawn) [Example 383, 5-(2-ethoxy-6-fluorophenyl)-3-methyl-1-((2-(p-tolyl)thiazol-4-yl)methyl)pyrrolidin-2-one] | 234 | 9 |
| CCOc1cccc(F)c1C1CC(C)C(=O)N1Cc1cccc(-c2ncc(C)s2)c1 (stereo not drawn) [Example 384, 5-(2-ethoxy-6-fluorophenyl)-3-methyl-1-(3-(5-methylthiazol-2-yl)benzyl)pyrrolidin-2-one] | 111 | 2 |
| CCOc1cccc(F)c1C1CC(C)C(=O)N1Cc1cccc(-c2nc(Cl)cs2)c1 (stereo not drawn) [Example 385, 1-(3-(4-chlorothiazol-2-yl)benzyl)-5-(2-ethoxy-6-fluorophenyl)-3-methylpyrrolidin-2-one] | 64 | 2 |
| CCOc1cccc(F)c1C1CC(C)C(=O)N1Cc1ccnc(-c2nc(C)cs2)c1 (stereo not drawn) [Example 386, 5-(2-ethoxy-6-fluorophenyl)-3-methyl-1-((2-(4-methylthiazol-2-yl)pyridin-4-yl)methyl)pyrrolidin-2-one] | 39 | 2 |
| COc1cccc(OC)c1C1CC(C)C(=O)N1Cc1ccc2c(c1)c1ccccc1n2C (stereo not drawn) [Example 387, 5-(2,6-dimethoxyphenyl)-3-methyl-1-((9-methyl-9H-carbazol-3-yl)methyl)pyrrolidin-2-one] | 100 | 111 |
| COc1cccc(OC)c1C1CC(C)C(=O)N1Cc1cc2ccccc2n1C (stereo not drawn) [Example 388, 5-(2,6-dimethoxyphenyl)-3-methyl-1-((1-methyl-1H-indol-2-yl)methyl)pyrrolidin-2-one] | 83 | 132 |
| COc1cccc(OC)c1C1CC(C)C(=O)N1Cc1cc2cc(F)ccc2n1C (stereo not drawn) [Example 390, 5-(2,6-dimethoxyphenyl)-1-((5-fluoro-1-methyl-1H-indol-2-yl)methyl)-3-methylpyrrolidin-2-one] | 80 | 142 |
| COc1cccc(OC)c1C1CC(C)C(=O)N1Cc1ccc2c(ccn2C)c1 (stereo not drawn) [Example 391, 5-(2,6-dimethoxyphenyl)-3-methyl-1-((1-methyl-1H-indol-5-yl)methyl)pyrrolidin-2-one] | 175 | 529 |
| COc1cccc(OC)c1C1CC(C)C(=O)N1Cc1ccc2[nH]ccc2c1 (stereo not drawn) [Example 392, 1-((1H-indol-5-yl)methyl)-5-(2,6-dimethoxyphenyl)-3-methylpyrrolidin-2-one] | 810 | 1780 |
| COc1cccc(OC)c1C1CC(C)C(=O)N1Cc1ccc2sc(C)nc2c1 (stereo not drawn) [Example 393, 5-(2,6-dimethoxyphenyl)-3-methyl-1-((2-methylbenzo[d]thiazol-5-yl)methyl)pyrrolidin-2-one] | 32 | 121 |
| COc1cccc(OC)c1C1CC(C)C(=O)N1Cc1ccc(OC(C)C)cc1 (stereo not drawn) [Example 397, 5-(2,6-dimethoxyphenyl)-1-(4-isopropoxybenzyl)-3-methylpyrrolidin-2-one] | 265 | 370 |
| COc1cccc(OC)c1C1CC(C)C(=O)N1Cc1ccc(SC(F)(F)F)cc1 (stereo not drawn) [Example 398, 5-(2,6-dimethoxyphenyl)-3-methyl-1-(4-((trifluoromethyl)thio)benzyl)pyrrolidin-2-one] | 277 | 428 |
| COc1cccc(OC)c1C1CC(C)C(=O)N1Cc1ccc(OC(F)(F)C(F)F)cc1 (stereo not drawn) [Example 399, 5-(2,6-dimethoxyphenyl)-3-methyl-1-(4-(1,1,2,2-tetrafluoroethoxy)benzyl)pyrrolidin-2-one] | 172 | 124 |

| Compound | IC50 (human orexin-1 receptor) [nM] | IC50 (human orexin-2 receptor) [nM] |
| --- | --- | --- |
| COc1cccc(OC)c1C1CC(C)C(=O)N1Cc1ccc(OC(F)(F)F)c(F)c1 (stereo not drawn) [Example 400, 5-(2,6-dimethoxyphenyl)-1-(3-fluoro-4-(trifluoromethoxy)benzyl)-3-methylpyrrolidin-2-one] | 151 | 183 |
| COc1cccc(OC)c1C1CC(C)C(=O)N1Cc1ccc(OC(F)F)c(Cl)c1 (stereo not drawn) [Example 401, 1-(3-chloro-4-(difluoromethoxy)benzyl)-5-(2,6-dimethoxyphenyl)-3-methylpyrrolidin-2-one] | 164 | 155 |
| COc1cccc(OC)c1C1CC(C)C(=O)N1Cc1ccc(OC(F)F)cc1 (stereo not drawn) [Example 402, 1-(4-(difluoromethoxy)benzyl)-5-(2,6-dimethoxyphenyl)-3-methylpyrrolidin-2-one] | 271 | 621 |
| COc1ccc(OC(F)(F)F)cc1CN1C(=O)C(C)CC1c1c(OC)cccc1OC (stereo not drawn) [Example 403, 5-(2,6-dimethoxyphenyl)-1-(2-methoxy-5-(trifluoromethoxy)benzyl)-3-methylpyrrolidin-2-one] | 532 | 449 |
| COc1ccc(CN2C(=O)C(C)CC2c2c(OC)cccc2OC)cc1OC(F)(F)F (stereo not drawn) [Example 404, 5-(2,6-dimethoxyphenyl)-1-(4-methoxy-3-(trifluoromethoxy)benzyl)-3-methylpyrrolidin-2-one] | 965 | 513 |
| COc1cccc(OC)c1C1CC(C)C(=O)N1Cc1ccccc1OC(F)(F)F (stereo not drawn) [Example 405, 5-(2,6-dimethoxyphenyl)-3-methyl-1-(2-(trifluoromethoxy)benzyl)pyrrolidin-2-one] | 555 | 87 |
| COc1cccc(F)c1C1CC(F)(F)C(=O)N1Cc1ccc2oc3ccccc3c2c1 (stereo not drawn) [Example 410, 1-(dibenzo[b,d]furan-2-ylmethyl)-3,3-difluoro-5-(2-fluoro-6-methoxyphenyl)pyrrolidin-2-one] | 143 | 12 |
| CC(C)Oc1cccc(F)c1C1CC(F)(F)C(=O)N1Cc1ccc(OC(F)(F)F)cc1 (stereo not drawn) [Example 411, 3,3-difluoro-5-(2-fluoro-6-isopropoxyphenyl)-1-(4-(trifluoromethoxy)benzyl)pyrrolidin-2-one] | 1490 | 98 |
| CC(C)Oc1cccc(F)c1C1CC(C)C(=O)N1Cc1ccc(OC(F)(F)F)cc1 (stereo not drawn) [Example 413, 5-(2-fluoro-6-isopropoxyphenyl)-3-methyl-1-(4-(trifluoromethoxy)benzyl)pyrrolidin-2-one] | 1500 | 68 |
| CC1CC(c2c(F)cccc2OCCF)N(Cc2ccc(OC(F)(F)F)cc2)C1=O (stereo not drawn) [Example 414, 5-(2-fluoro-6-(2-fluoroethoxy)phenyl)-3-methyl-1-(4-(trifluoromethoxy)benzyl)pyrrolidin-2-one] | 1500 | 44 |
| CC1CC(c2c(F)cccc2OCCO)N(Cc2ccc(OC(F)(F)F)cc2)C1=O (stereo not drawn) [Example 416, 5-(2-fluoro-6-(2-hydroxyethoxy)phenyl)-3-meetthyl-1-(4-(trifluoromethoxy)benzyl)pyrrolidin-2-one] | 2940 | 59 |
| COc1cccc(OC)c1C1CC(C)C(=O)N1Cc1cccc(OCC(F)(F)F)c1 (stereo not drawn) [Example 417, 5-(2,6-dimethoxyphenyl)-3-methyl-1-(3-(2,2,2-trifluoroethoxy)benzyl)pyrrolidin-2-one] | 123 | 110 |
| COc1cccc(OC)c1C1CC(C)C(=O)N1Cc1ccc(OCC(F)(F)F)cc1 (stereo not drawn) [Example 418, 5-(2,6-dimethoxyphenyl)-3-methyl-1-(4-(2,2,2-trifluoroethoxy)benzyl)pyrrolidin-2-one] | 430 | 323 |
| COc1cccc(OC)c1C1CC(C)C(=O)N1Cc1cccc(OCC(F)F)c1 (stereo not drawn) [Example 419, 1-(3-(2,2-difluoroethoxy)benzyl)-5-(2,6-dimethoxyphenyl)-3-methylpyrrolidin-2-one] | 143 | 173 |
| COc1cccc(OC)c1C1CC(C)C(=O)N1Cc1ccc(OCC(F)F)cc1 (stereo not drawn) [Example 420, 1-(4-(2,2-difluoroethoxy)benzyl)-5-(2,6-dimethoxyphenyl)-3-methylpyrrolidin-2-one] | 586 | 549 |
| COc1cccc(OC)c1C1CC(C)C(=O)N1Cc1cccc(OCCF)c1 (stereo not drawn) [Example 421, 5-(2,6-dimethoxyphenyl)-1-(3-(2-fluoroethoxy)benzyl)-3-methylpyrrolidin-2-one] | 498 | 237 |
| COc1cccc(OC)c1C1CC(C)C(=O)N1Cc1ccc(OCCF)cc1 (stereo not drawn) [Example 422, 5-(2,6-dimethoxyphenyl)-1-(4-(2-fluoroethoxy)benzyl)-3-methylpyrrolidin-2-one] | 863 | 1040 |
| COc1cccc(OC)c1C1CC(C)C(=O)N1Cc1cccc(OC(C)C)c1 (stereo not drawn) [Example 423, 5-(2,6-dimethoxyphenyl)-1-(3-isopropoxybenzyl)-3-methylpyrrolidin-2-one] | 101 | 93 |
